Source: US20230390278A1, “SYNERGISTIC COMBINATIONS OF VALPROOIC ACID AND QUINACRINE” (VESTLANDETS INNOVASJONSSELSKAP AS, priority 2020, published 2023)
Read-outs that look alike come from different tables or passages of the source. Values belong to the molecule of their own block, whether it stands above or below them.

How the values were obtained:
[1] = Plasma levels of QC and VPA in blood of off-label treated AML patients, measured by LC/MS; format: in vivo, human; conditions: for concentration at 3 h: 3 h after intake; for concentration at 25 day: Patient 1, day 25, QC 200 mg/day, VPA 600 + 1200 mg/day; for concentration at 64 day: Patient 1, day 64, QC 300 mg/day; for concentration at 163 day: Patient 1, day 163, QC 400 mg/day; for concentration at 65 day: Patient 2, day 65, QC 200 mg/day
Description: The plasma concentration may be the blood plasma concentration or bone marrow plasma concentration. […] Plasma concentrations may be determined by liquid chromatography-mass spectrometry (LC-MS).

[2] = Plasma levels of QC and VPA in bone marrow (BM) of off-label treated AML patients, measured by LC/MS; format: in vivo, human
[3] = human, oral, VPA 300 + 600 mg/day, read-out: Plasma QC
[4] = human, oral, Plasma VPA, VPA 300 + 600 mg/day

concentration at 3 h ([1]; human, oral, Patient 1, day 1, QC 100 mg/day, VPA 300 + 300 mg/day, read-out: Plasma QC): 4 nM
concentration at 25 day ([1]; human, oral, read-out: Plasma QC): 52 nM
concentration at 64 day ([1]; human, oral, VPA 600 + 900 mg/day, read-out: Plasma QC): 138 nM
concentration at 128 day ([1]; human, oral, Patient 1, day 128, QC 400 mg/day, VPA 600 + 900 mg/day): 38 nM
concentration at 163 day [1, 3]: 38 nM
concentration at 3 h ([1]; human, oral, Patient 2, day 1, QC 100 mg/day, VPA 300 + 600 mg/day, read-out: Plasma QC): 8 nM
concentration at 15 day ([1]; human, oral, Patient 2, day 15, QC 200 mg/day, VPA 600 + 600 mg/day, read-out: Plasma QC): 18 nM
concentration at 65 day [1, 3]: 130 nM
concentration at 3 h ([1]; human, oral, Patient 3, day 1, QC 100 mg/day, VPA 300 + 300 mg/day, read-out: Plasma QC): 8 nM
concentration at 15 day ([1]; human, oral, Patient 3, day 15, QC 300 mg/day, VPA 300 + 600 mg/day, read-out: Plasma QC): 300 nM
Plasma QC, BM ([2]; Patient 1, day 163, QC 400 mg/day, VPA 300 + 600 mg/day): BM: 44 nM
Plasma QC, BM ([2]; Patient 2, day 15, QC 200 mg/day, VPA 600 + 600 mg/day): BM: 32 nM
Plasma QC, BM ([2]; Patient 2, day 65, QC 200 mg/day, VPA 300 + 600 mg/day): BM: 332 nM
Structure (SMILES): CCN(CC)CCCC(C)Nc1c2ccc(Cl)cc2nc2ccc(OC)cc12 (racemic) [QC, (RS)-N′-(6-chloro-2-methoxy-acridin-9-yl)-N, N-diethyl-pentane-1,4-diamine]

Plasma VPA ([1]; Patient 1, day 128, QC 400 mg/day, VPA 600 + 900 mg/day, neg: negative): neg
concentration at 3 h ([1]; human, oral, Plasma VPA, Patient 1, day 1, QC 100 mg/day, VPA 300 + 300 mg/day): 17100 nM
concentration at 25 day ([1]; human, oral, Plasma VPA): 43000 nM
concentration at 64 day ([1]; human, oral, Plasma VPA, VPA 600 + 900 mg/day): 25600 nM
concentration at 163 day [1, 4]: 119000 nM
concentration at 3 h ([1]; human, oral, Plasma VPA, Patient 2, day 1, QC 100 mg/day, VPA 300 + 600 mg/day): 156000 nM
concentration at 15 day ([1]; human, oral, Plasma VPA, Patient 2, day 15, QC 200 mg/day, VPA 600 + 600 mg/day): 442000 nM
concentration at 65 day [1, 4]: 341000 nM
concentration at 3 h ([1]; human, oral, Plasma VPA, Patient 3, day 1, QC 100 mg/day, VPA 300 + 300 mg/day): 120000 nM
concentration at 15 day ([1]; human, oral, Plasma VPA, Patient 3, day 15, QC 300 mg/day, VPA 300 + 600 mg/day): 41300 nM
Structure (SMILES): CCCC(CCC)C(=O)O [VPA, 2-propylvaleric acid]
